Measured values published in patent US20050080076A1 (Xanodyne Pharmacal, Inc., priority 2003, published 2005).

Assays:
[1] = system: human colon carcinoma cell line (CACO-2 Model); experiment: Intestinal absorption assay (CACO-2 Model); assay type: in vitro ADME
Adrenergic α1A = Adrenergic α1A (Homo sapiens, UniProt P25100); experiment: Receptor binding, Adrenergic α1A
Protocol: Receptor-ligand binding studies were performed as known to one skilled in the art. Compounds evaluated were LMP, the parent compound, the NDM LMP metabolite of LMP, and the sulfoxide metabolite of LMP. These studies verified receptor binding and affinity by the parent compound, as well as identified other potential receptors for the parent compound and its metabolites, and identified and verified receptors and receptor affinity for the metabolites. […] Binding to the histamine H1 receptor, the calcium ion channel receptor, and the sodium ion channel receptor were also evaluated. In each of the tables, the following abbreviations are used: LMP indicates the parent compound levomepromazine. NDM LMP indicates the N-desmethyl (N-desmethyl) metabolite. Sulfoxide indicates the sulfoxide metabolite. […] Ki (the inhibition constants of binding) indicate binding affinity.

Adrenergic α1C = Adrenergic α1C (Homo sapiens, UniProt P35348); experiment: Receptor binding, Adrenergic α1C
Adrenergic α1C, sequence (P35348 whole entry): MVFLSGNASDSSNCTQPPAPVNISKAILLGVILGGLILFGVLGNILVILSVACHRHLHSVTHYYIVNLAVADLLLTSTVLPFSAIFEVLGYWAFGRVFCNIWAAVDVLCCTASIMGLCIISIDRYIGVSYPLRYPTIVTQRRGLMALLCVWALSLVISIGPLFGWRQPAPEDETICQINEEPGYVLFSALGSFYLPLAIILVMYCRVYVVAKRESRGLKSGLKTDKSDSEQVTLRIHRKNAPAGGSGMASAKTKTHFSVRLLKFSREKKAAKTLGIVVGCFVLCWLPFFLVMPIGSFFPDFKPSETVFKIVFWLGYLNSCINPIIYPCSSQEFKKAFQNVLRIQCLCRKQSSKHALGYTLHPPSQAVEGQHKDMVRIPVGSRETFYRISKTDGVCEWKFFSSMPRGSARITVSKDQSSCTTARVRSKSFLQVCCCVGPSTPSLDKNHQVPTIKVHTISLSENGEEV
Protocol: Receptor-ligand binding studies were performed as known to one skilled in the art. […] Binding to the histamine H1 receptor, the calcium ion channel receptor, and the sodium ion channel receptor were also evaluated. […] Sulfoxide indicates the sulfoxide metabolite. […] Ki (the inhibition constants of binding) indicate binding affinity.

Adrenergic α1A, sequence (P25100 whole entry): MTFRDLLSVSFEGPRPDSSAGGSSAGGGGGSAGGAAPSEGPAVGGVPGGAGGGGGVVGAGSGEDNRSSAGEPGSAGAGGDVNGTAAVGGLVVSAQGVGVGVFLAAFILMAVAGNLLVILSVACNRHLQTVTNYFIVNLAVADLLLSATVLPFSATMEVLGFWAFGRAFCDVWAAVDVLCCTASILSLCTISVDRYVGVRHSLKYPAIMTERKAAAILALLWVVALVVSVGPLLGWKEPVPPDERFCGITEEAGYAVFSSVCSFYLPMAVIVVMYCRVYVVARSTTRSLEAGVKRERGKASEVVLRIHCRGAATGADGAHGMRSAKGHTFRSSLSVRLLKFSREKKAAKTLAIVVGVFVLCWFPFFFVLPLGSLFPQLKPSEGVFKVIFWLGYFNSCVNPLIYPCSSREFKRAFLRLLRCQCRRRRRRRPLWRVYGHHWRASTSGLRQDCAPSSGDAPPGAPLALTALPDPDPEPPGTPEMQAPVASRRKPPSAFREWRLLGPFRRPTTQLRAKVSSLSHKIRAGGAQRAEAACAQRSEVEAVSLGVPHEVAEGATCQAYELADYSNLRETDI

Row | Structure (SMILES) | apical to basolateral permeability coefficient relative to parent LMP [1] | gut wall (enterocyte) metabolism relative to parent LMP [1] | percent recovered through the system relative to parent LMP [1] | Ki (Adrenergic α1A) | Ki (Adrenergic α1C)
1 | CNCC(C)CN1c2ccccc2Sc2ccc(OC)cc21 (stereo not drawn) [NDM LMP, R(+) 2-methoxy-10-2-methyl-3-monomethylaminopropyl phenothiazine] | 1.5 fold | occurs to a lower extent | 1.5-2.0 fold | – | –
2 | COc1ccc2c(c1)N(C[C@H](C)CN(C)C)c1ccccc1[S+]2[O-] (some centres unmarked) [Sulfoxide, levomepromazine sulfoxide] | – | – | – | 141 nM | 193 nM
